For 18 compounds, IC50 and half-life results are on record in patent US8524911B2, “3-arylamino pyridine derivatives” (Merck Serono SA, priority 2004, dated 2013).

For one data set, the target named is human MEK1 (Homo sapiens, UniProt Q02750). Put plainly: MEK-1 Enzyme Assay (LANCE-HTRF). Conditions: 100 nM MEK1, 15 μM ATP, 300 nM ERK2, two hours; read-out: MEK inhibition. The format is biochemical. In outline: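 TR-FRET readout of MEK1-catalysed ERK1 phosphorylation; after a 2 h reaction, Eu-anti-PY20 (5 nM) and anti-GST-APC (50 nM) were added in buffer with 50 mM EDTA and 0.05% BSA, then incubated 1 h in the dark.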
human MEK1, sequence (Q02750 whole entry): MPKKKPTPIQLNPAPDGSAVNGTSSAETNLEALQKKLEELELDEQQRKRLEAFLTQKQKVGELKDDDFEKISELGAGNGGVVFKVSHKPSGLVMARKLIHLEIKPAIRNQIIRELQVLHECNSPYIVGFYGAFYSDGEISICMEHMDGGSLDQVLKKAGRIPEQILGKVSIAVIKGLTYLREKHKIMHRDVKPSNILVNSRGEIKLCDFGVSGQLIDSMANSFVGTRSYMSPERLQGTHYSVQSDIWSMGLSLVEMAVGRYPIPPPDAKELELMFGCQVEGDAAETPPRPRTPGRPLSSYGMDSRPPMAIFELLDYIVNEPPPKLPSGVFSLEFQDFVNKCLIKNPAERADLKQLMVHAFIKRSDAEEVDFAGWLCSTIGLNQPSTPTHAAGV

Data set [1] is described as follows: Microsomal stability assay, HLM. The format is in vitro ADME. Conditions: pooled human liver microsomes, pH 7.4; 3 μM compound, 0.5 mg/ml human liver microsomes, 37° C., 2 mM NADPH; read-out: HLM t1/2. The protocol: (§1) Assay 3: Microsomal Stability Assay
(§2) Compounds were tested on their stability in human, rat and mouse liver microsomal preparations (HLM, RLM and MLM respectively). At a final concentration of 3 μM, compounds were incubated at 37° C. with 0.5 mg/ml human, rat or mouse liver microsomes in a buffer containing 50 mM phosphate, pH 7.4 and 2 mM NADPH. Pooled human liver microsomes or pooled male rat liver microsomes (Sprague Dawley) were obtained from NatuTec (Frankfurt, Germany). Incubations without NADPH served as negative controls. Reactions were stopped after 0, 15, 30, 45 or 60 min by the addition of acetonitrile and microsomes were pelleted by centrifugation (10 min at 6200×g). Supernatants were analyzed by HPLC regarding the concentration of mother compound. Finally, the half life of compounds in the regarding microsomal preparation was calculated.
(Microsomes from liver hold many membrane-bound enzymes, among them those of drug oxidation.)

Data set [2] is described as follows: Microsomal stability assay, RLM. Type of data set: in vitro ADME. To be noted: male, Sprague Dawley, pooled rat liver microsomes, pH 7.4; 3 μM compound, 0.5 mg/ml rat liver microsomes, 37° C., 2 mM NADPH; read-out: RLM t1/2. The protocol:
as §1, §2

The test system of data set [3] is human pancreatic MiaPaCa-2 cells. Put plainly: Tumor cell proliferation assay (ATP Lite), MiaPaCa-2. The format is cell-based. Conditions: MIA PaCa-2, 96 h, 4 days. In short, it runs like this:
(§3)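 Cells seeded at 1500/well (C26) or 2000/well (A375, MiaPaCa-2) grew overnight, then were exposed to serially diluted compounds (0.25% DMSO final) for 4 days in serum-containing DMEM or RPMI. Viability read by ATPlite luminescence; IC50 is the concentration giving 50% cell death.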

The subject of a further data set is Murine colon C26 cells. Put plainly: Tumor cell proliferation assay (ATP Lite), C26. Type of data set: cell-based. To be noted: Mus musculus, 96 h, 4 days. In outline:
as §3

Data set [4] relates to human melanoma A375 cells. Put plainly: Tumor cell proliferation assay (ATP Lite), A375. Type of data set: cell-based. Conditions: A-375, 96 h, 4 days. In outline:
as §3

Counter-ions that a name gives are not always drawn. Bounds are passed on as bounds.

For the compound `Cc1cc(I)ccc1Nc1cnccc1C(=O)NS(C)(=O)=O` [Example 123, N-[3-(4-Iodo-2-methyl-phenylamino)-pyridine-4-carbonyl]-methanesulfonamide], the IC50 on human MEK1 was less than 1000 nM. Also, the half-life at 3 µM in data set [1] was in the range of 31 to 120 min; in data set [2] it was 1 to 30 min.

`O=C(NOC[C@@H](O)CO)c1ccncc1Nc1ccc(I)cc1F` [Example 75, N-{[(2S)-2,3-dihydroxypropyl]oxy}-3-[(2-fluoro-4-iodophenyl)-amino]isonicotin-amide]: the IC50 on human MEK1 was less than 1000 nM; in data set [3], not above 3 µM; in the data set on Murine colon C26 cells it was not above 3 µM; in data set [4], not above 3 µM.

Turning to `O=C(NCCCCCO)c1ccncc1Nc1ccc(I)cc1Cl` [Example 36, 3-(2-Chloro-4-iodo-phenylamino)-N-(5-hydroxy-pentyl)-isonicotinamide], the IC50 was less than 1000 nM at human MEK1, not above 3 µM in data set [3], not above 3 µM with Murine colon C26 cells and not above 3 µM in data set [4].

`O=C(NN1CCOCC1)c1ccncc1Nc1ccc(I)cc1F` [Example 25, 3-[(2-fluoro-4-iodophenyl)amino]-N-morpholin-4-ylisonicotin-amide]: the IC50 is less than 1000 nM at human MEK1, not above 3 µM in data set [3], not above 3 µM in the data set on Murine colon C26 cells and not above 3 µM in data set [4].

For the compound `CCNC(=O)c1ccncc1Nc1ccc(I)cc1F` [Example 18, N-ethyl-3-[(2-fluoro-4-iodophenyl)amino]isonicotinamide], the IC50 on human MEK1 was less than 1000 nM; in data set [3], not above 3 µM; in the data set with Murine colon C26 cells, not above 3 µM; in data set [4] it was not above 3 µM.

With `O=C(NOC[C@H](O)CO)c1ccncc1Nc1ccc(I)cc1` [Example 96, N-{[(2R)-2,3-dihydroxypropyl]oxy}-3-(4-iodophenylamino)-isonicotinamide], the IC50 on human MEK1 is less than 1000 nM; in data set [3] it was not above 3 µM; in the data set on Murine colon C26 cells it was not above 3 µM; in data set [4] it was not above 3 µM.

In the case of `CC(C)(C)OC(=O)NC1CCN(C(=O)c2ccncc2Nc2ccc(I)cc2F)CC1` [Example 34, tert-butyl(1-{3-[(2-fluoro-4-iodophenyl)amino]isonicotinoyl}-piperidin-4-yl)carbamate], the IC50 is less than 1000 nM on human MEK1, 3 to 10 µM in data set [3], 3 to 10 µM in the data set on Murine colon C26 cells and not above 3 µM in data set [4].

Turning to `O=C(NNc1nccc(C(F)(F)F)n1)c1ccncc1Nc1ccc(I)cc1F` [Example 50, 3-[(2-fluoro-4-iodophenyl)amino]-N′-[4-(trifluoromethyl)pyrimidin-2-yl]isonicotinohydrazide], the IC50 on human MEK1 is less than 1000 nM; in data set [3], 3 to 10 µM; with Murine colon C26 cells it was 3 to 10 µM; in data set [4], not above 3 µM.

With `O=C(NN1CCCCC1)c1ccncc1Nc1ccc(I)cc1F` [Example 19, 3-[(2-fluoro-4-iodophenyl)amino]-N-piperidin-1-ylisonicotinamide], the IC50 at human MEK1 is less than 1000 nM; in data set [3] it was not above 3 µM; in the data set on Murine colon C26 cells, 3 to 10 µM; in data set [4], not above 3 µM.

As for `NC(=O)c1cc(Br)ncc1Nc1ccc(I)cc1F` [Example 68, 2-Bromo-5-(2-fluoro-4-iodo-phenylamino)-isonicotinamide], the IC50 on human MEK1 is less than 1000 nM; in data set [3], not above 3 µM; with Murine colon C26 cells it was not above 3 µM; in data set [4] it was not above 3 µM.

Regarding `O=C(NCCCO)c1cc(Br)ncc1Nc1ccc(I)cc1F` [Example 70, 2-Bromo-5-(2-fluoro-4-iodo-phenylamino)-N-(3-hydroxy-propyl)-isonicotinamide], the IC50 at human MEK1 is less than 1000 nM; in data set [3] it was not above 3 µM; in the data set on Murine colon C26 cells it was not above 3 µM; in data set [4] it was not above 3 µM.

In the case of `O=C(NOC[C@H](O)CO)c1ccnc(Cl)c1Nc1ccc(I)cc1F` [Example 43, 2-Chloro-N-[(2R)-2,3-dihydroxy-propoxy]-3-(2-fluoro-4-iodo-phenylamino)-isonicotinamide], the IC50 at human MEK1 is less than 1000 nM; in data set [3], 3 to 10 µM; with Murine colon C26 cells, 3 to 10 µM; in data set [4], not above 3 µM.

`O=C(NOC[C@H](O)CO)c1ccncc1Nc1ccc(I)cc1Cl` [Example 8, 3-[(2-chloro-4-iodophenyl)amino]-N-{[(2R)-2,3-dihydroxypropyl]oxy}-isonicotinamide]: the IC50 on human MEK1 is less than 1000 nM; in data set [3], not above 3 µM; in the data set with Murine colon C26 cells it was not above 3 µM; in data set [4], not above 3 µM.

As for `Cc1ccc(CC(=O)NC2CCN(C(=O)c3ccncc3Nc3ccc(I)cc3F)CC2)cc1` [Example 86, N-(1-{3-[(2-fluoro-4-iodophenyl)amino]isonicotinoyl}piperidin-4-yl)-2-(4-methylphenyl)acetamide], the IC50 on human MEK1 is less than 1000 nM; in data set [3] it was 3 to 10 µM; with Murine colon C26 cells, 3 to 10 µM; in data set [4] it was not above 3 µM.

For `O=C(NNc1ccccc1)c1ccncc1Nc1ccc(I)cc1F` [Example 32, 3-[(2-fluoro-4-iodophenyl)amino]-N′-phenylisonicotinohydrazide], the IC50 on human MEK1 is less than 1000 nM; in data set [3], not above 3 µM; with Murine colon C26 cells, not above 3 µM; in data set [4], not above 3 µM.

`O=C(NCCO)c1cc(Br)ncc1Nc1ccc(I)cc1F` [Example 74, 2-Bromo-5-(2-fluoro-4-iodo-phenylamino)-N-(2-hydroxy-ethyl)-isonicotinamide]: the IC50 on human MEK1 is less than 1000 nM; in data set [3], 3 to 10 µM; in the data set with Murine colon C26 cells, 3 to 10 µM; in data set [4] it was not above 3 µM.

For the compound `NC(=O)c1ccncc1Nc1ccc(I)cc1Cl` [Example 11, 3-[(2-chloro-4-iodophenyl)amino]isonicotinamide], the IC50 was less than 1000 nM at human MEK1, not above 3 µM in data set [3], not above 3 µM in the data set with Murine colon C26 cells and not above 3 µM in data set [4].

In the case of `NC1CCN(C(=O)c2ccncc2Nc2ccc(I)cc2F)CC1` [Example 44, 4-[(4-aminopiperidin-1-yl)carbonyl]-N-(2-fluoro-4-iodophenyl)pyridin-3-amine hydrochloride], the IC50 on human MEK1 was less than 1000 nM; in data set [3], 3 to 10 µM; in the data set on Murine colon C26 cells, 3 to 10 µM; in data set [4] it was not above 3 µM.
